Experimental data as given in patent US20090181098A1, “Hmg-Co-a Reductase Inhibitor Enhancement of Bone and Cartilage” (OsteoScreen IP, LLC, priority 2006, published 2009).
Like-named read-outs stand apart in the source and are kept apart here.

How the values were obtained:
[1] = Serum liver and muscle enzymes (ALT, AST, AP, LDH, CPK) and myotoxicity after dermal lovastatin; settings: for ALT / AP / AST / CPK / LDH: end of 5 day treatment
Protocol: (§1) Blood samples were obtained at the end of the five day treatment for determination of liver and muscle enzymes (alanine aminotransferase (ALT), aspartate aminotransferase (AST), alkaline phosphatase (AP), and lactic dehydrogenase (LDH) by radioimmunoassays (Esoterix, San Antonio, Tex.). Kinetic quantitative determination of […] (CPK) in serum was estimated using a kit from Stanbio Laboratory (Boerne, Tex.). The concentration of osteocalcin was measured using a sandwich ELISA assay supplied by from Biomedical Technologies Inc.
Three-month old virgin female Sprague Dawley rats were purchased from Harlan Laboratories, LTD (Indianapolis, Ind.). Experiments were performed using either intact, bilaterally ovariectomized (OVX) or sham-operated (SHAM) rats with treatment starting 5 days after surgery in the latter groups. Rats were weight-matched and divided into treatment groups (n=10). Compounds were administered by daily transdermal application for 5 days only or 5 days/week for 5 weeks when specified. Animals were pair-fed throughout the experimental period and weekly body weights determined and dosage adjusted accordingly. At the completion of the experiment, animals were anesthetized with a ketamine (10 mg/ml) at a dose of 100 mg/kg body weight and euthanized by cervical dislocation.

intact rats = test: Effects of transdermal lovastatin on bone in intact rats (BMD, histomorphometry, μCT); type: in vivo, rat; settings: for Increase in bone volume, proximal tibial metaphysis: dermal, hydrophilic petrolatum, 4 weeks after treatment
Protocol: Following sacrifice, both femurs and tibiae were removed, cleaned of soft tissue, fixed in 10% formalin for 48 hours, and then stored in 70% ETOH and prepared for histology. Histomorphometric analysis was performed using a semiautomated Osteomeasure System (Osteometrics, Inc., Atlanta, Ga.) and digitizing pad and by following standard histomorphometric techniques. Bone volume, trabecular number, thickness and separation, cell number and dynamic parameters were determined as described previously by Parfitt et al. [Parfitt A M (1988) Bone histomorphometry: standardization of nomenclature, symbols and units. Summary of proposed system. J Bone Miner Res 4:1-5.]. Bone formation rates (BFR) and mineral apposition rates (MAR) were measured in plastic-embedded sections following demeclocycline and calcein injections (15 and 20 mg/kg/body weight respectively) given intraperitoneally at 10 and 4 days before sacrifice. Values for MAR were corrected for obliquity of the plane of section in cancellous bone. Rats were evaluated with a mouse densitometer, Piximus (GE Medical Systems); bone mineral density (BMD), calculated by dividing bone mineral content (g) by the projected bone area (cm^2), was assessed for the proximal third of the tibia at time 0 and at 5 weeks. Micro-computed tomography (μ-CT) analysis of the rat distal femur was kindly performed by Phil Salmon (Skyscan, Belgium). Bones were scanned using the Skyscan Model 1072 employing an x-ray tube voltage of 100 kV, and magnified to attain a pixel size of 10.13 μm. Data are expressed as the mean standard error (SEM). Statistical differences between groups were evaluated with one-way analysis of variance (ANOVA). […] P<0.05 were considered significant.

osteocalcin = test: Serum osteocalcin (sandwich ELISA) in OVX rats; type: in vivo, rat; settings: dermal gel 0.01 mg/kg/day for 5 days, day 26
Protocol: as §1

femur fracture model = test: Femur fracture model, systemically delivered lovastatin (radiographs, biomechanics); type: in vivo, rat
[2] = Plasma lovastatin by mass spectroscopy, fracture Experiment 2; type: in vivo; settings: rat, 3 hrs after the last dose, read-out: Plasma lovastatin level
Protocol: Plasma was taken from the rats 3 hrs after the last dose and the lovastatin was measured by mass spectroscopy. […] Effective plasma levels from transdermal administration is on the order of 2-3 ng/ml.

[3] = Plasma lovastatin by mass spectroscopy after local nanobeads; type: in vivo, rat; settings: any of the dosed groups, end of the experiment
Protocol: Plasma was taken from the rats 3 hrs after the last dose and the lovastatin was measured by mass spectroscopy.

[4] = poly(DL-lactide) nanoparticles
Protocol: The test material is lovastatin in nanoparticles prepared as described above. […] The test articles are nanoparticles with and without lovastatin. […] The lovastatin levels are determined by HPLC and the release curved is followed throughout the experiment.

[5] = dermal, hydrophilic petrolatum, 1 mg/kg/day
[6] = dermal, hydrophilic petrolatum, 5 mg/kg/day
[7] = transdermal 1 and 5 mg/kg/day for 5 days

For `CC[C@H](C)C(=O)O[C@H]1C[C@@H](C)C=C2C=C[C@H](C)[C@H](CC[C@@H]3C[C@@H](O)CC(=O)O3)[C@H]21` [lovastatin], the “Change in liver and muscle skeletal tissue enzymes (AST, ALT, AP, LDH, CPK)” value ([1]; dermal, aqueous alkanolic gel, 0.01 to 0.5 mg/kg/day, end of treatment, sham/ovx rats) was “No significant changes”, the ALT [1, 5] was 55 ± 3 μ/L and the AP [1, 5] was 123 ± 6 μ/L. The AST [1, 5] was 110 ± 4 μ/L, the CPK [1, 5] was 441 ± 61 μ/L and the LDH [1, 5] was 349 ± 47 μ/L. It also gave an ALT [1, 6] of 57 ± 2 μ/L, an AP [1, 6] of 115 ± 5 μ/L and an AST [1, 6] of 128 ± 7 μ/L. For the same compound, the CPK [1, 6] was 578 ± 45 μ/L, the LDH [1, 6] was 528 ± 67 μ/L and the “Change in liver and muscle enzymes (ALT, AST, AP, LDH, CPK) vs vehicle” value ([1]; dermal, hydrophilic petrolatum, 1 and 5 mg/kg/day, 5 days) was “No changes”. The “Serum creatine protein kinase (CPK), treated groups vs control” value ([1]; hydroalcoholic gel, 5 days, sham and ovx rats) was “No significant changes”, the “Non-myotoxic dose (50 mg/kg/day) relative to effective dose (0.01 mg/kg)” value ([1]; transdermal) was 5000 fold and the “Myotoxicity by CPK measurements and morphologic examination of skeletal muscles” value ([1]; transdermal, doses up to 50 mg/kg/day) was “not observed”. For the same compound, the “Bone formation rates greater than those of control rats” value (intact rats; after 30 days, transdermal 5 days) was “more than 150%”, the “Increase in bone formation rates” value (intact rats; dermal 5 mg/kg/day) was 166% and the “Increase in bone volume, proximal tibial metaphysis” value (intact rats; 1 mg/kg/day for 5 days only) was 17%. For the same compound, the “Increase in bone volume, proximal tibial metaphysis” value (intact rats; 5 mg/kg/day for 5 days only) was 33%, the “Cancellous bone volume in distal femoral metaphyses by μCT vs controls” value (intact rats; [7]) was “higher cancellous bone volume” and the “Trabecular thickness, number and spacing by μCT” value (intact rats; [7]) was “increase in trabecular thickness and number, and reduced trabecular spacing”. For the same compound, the “Increase in BMD over vehicle-treated controls” value (intact rats; weekly dermal administration, proximal tibiae, Piximus, end of five weeks) was 8%, the Serum osteocalcin levels (osteocalcin) was “significant increase in osteocalcin levels” and the “Maximum force to break the bones, 2.5 mg/kg vs 1 mg/kg/day” value (femur fracture model; Experiment 1, 5 day transdermal dose of 2.5 mg/kg, 6 weeks) was “lower maximum force than the 1 mg/kg/day dose”. The “Radiological evaluation of fracture repair” value (femur fracture model; Experiment 1, oral 10 and 25 mg/kg, six weeks) was “no difference between the treated and the controls”, the “Radiographic score at 2 weeks” value (femur fracture model; Experiment 1, oral 10 and 25 mg/kg/day) was “no difference from vehicle-treated controls” and the “Force required to break the bone” value (femur fracture model; Experiment 1, oral 10 and 25 mg/kg/day, 6 weeks) was “no effect”. For the same compound, the “Radiographic score at 2 weeks” value (femur fracture model; Experiment 1, transdermal 1 and 2.5 mg/kg/day) was “striking effect at both doses”, the “Force required to break the bone, greater than vehicle treated controls” value (femur fracture model; Experiment 1, transdermal, 6 weeks) was 42% and the “Radiological evaluation of fracture repair” value (femur fracture model; Experiment 1, transdermal, week 6) was “complete healing by week 6”. The “Force required to break the bone, greater than vehicle-treated controls” value (femur fracture model; Experiment 2, TD 0.1 mg/kg/day, 6 weeks) was 42%, the “Maximum force to rebreak the bones” value (femur fracture model; Experiment 2, TD doses higher than 0.1 mg/kg/day) was “reduced maximum force” and the “Force required to break the bone” value (femur fracture model; Experiment 2, oral 5 mg/kg/day, 6 weeks) was “no effect”. For the same compound, the Stiffness (femur fracture model; Experiment 2, oral 5 mg/kg/day, 6 weeks after fracture) was “no effect”, the “Most effective transdermal dose” value (femur fracture model; for 5 days) was 0.1 mg/kg/day and the Stiffness (femur fracture model; previous experiment (Experiment 1), oral, higher doses) was “increase in stiffness”. The “Fracture healing (radiographic examination and biomechanical loading)” value (femur fracture model; transdermal) was “accelerates fracture healing”, the “Strength and stiffness of fractured bones” value (femur fracture model; transdermal, even at 0.1 mg/kg/day for 5 days only) was “increase in both strength and stiffness” and the concentration at 3 h ([2]; oral 5 mg/kg/day) was 10 ng/mL. The concentration at 3 h ([2]; topical, transdermal 0.1 and 1 mg/kg/day) was 2 to 3 ng/mL, the Plasma lovastatin [3] was “undetectable” and the “Release rate of lovastatin from nanoparticles” value [4] was “about 2 %/day”.
